Laboratory results from ChEMBL document CHEMBL1177767, “The discovery and initial optimisation of pyrrole-2-carboxamides as inhibitors of p38alpha MAP kinase” (Bioorg Med Chem Lett, 2010).

Experiments:
Type in all cases: ADME, organism-based
[1] = Half life in CD rat at 1 mg/kg, iv and 1 mg/kg, po after 7 hrs by LC-MS/MS analysis; details: in vivo
[2] = Oral bioavailability in CD rat at 1 mg/kg after 7 hrs by LC-MS/MS analysis; details: in vivo
[3] = Clearance in CD rat at 1 mg/kg, iv and 1 mg/kg, po after 7 hrs by LC-MS/MS analysis; details: in vivo
[4] = Apparent volume of distribution at steady state in CD rat at 1 mg/kg, iv and 1 mg/kg, po after 7 hrs by LC-MS/MS analysis; details: in vivo, read-out: Vdss

half-life [1]: 9.6 min | bioavailability [2]: 18% | clearance [3]: 56 mL/min/kg | Vd [4]: 0.931 L/kg
SMILES: Cc1ccccc1C(=O)c1c[nH]c(C(=O)NCc2ccco2)c1
